How the values were obtained:
Rattus norvegicus [1] = species on record: Rattus norvegicus; test: In vitro biological activity in the absence of magnesium ions was determined in rats by Uterotonic test; format: functional
Rattus norvegicus [2] = species on record: Rattus norvegicus; test: Vasopressor test using phonoxybenzamine treated male rats was determined; format: functional
Rattus norvegicus [3] = test: Antidiuretic test on conscious rats was determined; format: functional, Urine

| Compound | Activity (Rattus norvegicus [1]) [IU mg-1] | Activity (Rattus norvegicus [2]) [IU mg-1] | Activity (Rattus norvegicus [3]) [IU mg-1] |
| --- | --- | --- | --- |
| NC(=O)CC[C@@H]1NC(=O)[C@H](Cc2ccccc2)NC(=O)[C@H](Cc2ccc(O)cc2)NC(=O)[C@@H](N)CSCSC[C@@H](C(=O)N2CCC[C@H]2C(=O)N[C@@H](CCCN=C(N)N)C(=O)NCC(N)=O)NC(=O)[C@H](CC(N)=O)NC1=O | 1.4 | 55.3 | 46.5 |
| N=C(N)NCCC[C@H](NC(=O)[C@@H]1CCCN1C(=O)[C@@H]1CSSC[C@H](N)C(=O)N[C@@H](Cc2ccc(O)cc2)C(=O)N[C@@H](Cc2ccccc2)C(=O)N[C@@H](CCC(N)=O)C(=O)N[C@@H](CC(N)=O)C(=O)N1)C(=O)NCC(N)=O [VASOPRESSIN] | 17 | 412 | 465 |
